Assay results from patent US8906858B2, “Method for the prophylactic or therapeutic treatment of glucocorticoid-induced osteoporosis” (Fritz-Lipmann-Institut E. V. Leibniz-Institut Fuer …, priority 2010, dated 2014).
“Also recorded” adds a separate entry of the source. Read-outs that look alike come from different tables or passages of the source.

Legend:
[1] = test system: Cxcl10 and IL-6 mRNA expression; conditions: primary osteoblasts, 10^−6 M CpdA, 6 h
Procedure: (§1) FIG. 18. […] B) After 6 h of cultivation, IL-11 mRNA expression levels were measured from total RNA extracts. C) IL-11 protein was measured in the supernatant using ELISA after 36 h of culture (n=3; Beta-actin was used for standardisation). *P<0.05, **P<0.01; 1-way ANOVA followed by Dunnett's multiple comparison test. […] E) Western blot analysis is shown for STAT3 phosphorylation of bones from GR^Runx2Cre mice subjected to organ cultures, treated as in D for 36 h.

[2] = test system: IL-11 signaling; conditions: primary osteoblasts, 10^−6 M CpdA
Procedure: as §1

[3] = test system: DBA/1 mice; conditions: CpdA (300 ug) daily for 8 d
Procedure: (§2) FIG. 19. […] A) Cells were fixed and stained for ALP activity after 10 d and for mineralization of the matrix using Alizarin red after 20 d of culture. B) mRNA expression levels of osteoblast marker genes are shown, indicated as arbitrary units of actin expression.
(§3) FIG. 22. Determination of alkaline phosphatase activity (ALP) and corresponding IL-11 levels with ELISA 48 hrs after induction. A) Primary osteoblasts of wild type mice were cultured for 10 days with osteogenic inducers (OI) or 0.5 ng/ml IL-11 compared to untreated cells (ctr). Cells were fixed and stained for alkaline phosphatase activity (ALP). The corresponding IL-11 levels were determined with ELISA 48 hrs after induction.

[4] = test system: primary osteoblasts; conditions: 10^−6 M CpdA, OI differentiation
Procedure: as §2, §3

[5] = test system: Mouse embryonic fibroblasts; assay: Functional screening assay, automated fluorescent microscopy of ALP activity and cytokines; type: cell-based
Procedure: Automated fluorescent microscopy for high content screening of factors involved in osteoblast differentiation. (A) In osteogenic differentiated (OI) wild type MEFs ALP activity is shown by a fluorescent product (ELF®, green) and nuclei are indicated by DRAQ5® staining (red).
500 Mouse embryonic fibroblasts are seeded per 384 well (2000 cells into a 96 well) until confluency (approx. 2 days). […] 3.7% Formalin is added (50 μl).
Differentiation of osteoblasts treated either with agents to be tested or with RNAi will be determined by staining for alkaline phosphatase activity (ALP kit; Sigma, Inc. or ELF® Phosphatase Detection Kit, ATCC). The preserved anti-inflammatory activity is monitored by immunhistochemical staining with antibodies against IL-6 and CXCL10. The avoidance to affect IL-11 and LIF expression is additionally determined by immunohistochemistry as well.
After fixation, the wells are stained with the nuclear stain DRAQ5 and a fluorescent substrate (ELF) for alkaline phosphatase activity. This allows monitoring cellular ALP activity by automatic microscopy and evaluation with the respective software (FIG. 17).
Immunohistochemical staining towards the antibodies IL-6, CXCL10, IL-11 and/or LIF follows as a last step. Fluorescent signals of the antibodies will be monitored by automatic microscopy and evaluation with the respective software.

[6] = test system: MMP-13; conditions: monocytic cells
[7] = test system: osteoblastogenesis in bone marrow / long bones of mice; assay: CFU-OBs and Col1a1 mRNA in long bones after three days of prednisolone; type: in vivo, mouse; conditions: for Col1a1 expression in long bones / osteoblastogenesis, colony forming units of osteoblasts (CFU-OBs): three days of prednisolone
Text: (G) Number of CFU-OBs within the bone marrow/leg (femur and tibia) and (H) qRT-PCR-determined Col1a1 mRNA expression in long bones of mice treated with placebo or prednisolone for three days.
(F) Number of CFU-OBs within the bone marrow/leg and (G) qRT-PCR-determined Col1a1 mRNA expression in long bones of mice treated with placebo or prednisolone for three days.
CFU-OBs per leg were obtained by counting Alizarin Red-positive colonies of 2×10^6 bone marrow cells (excluding erythrocytes) plated per 6-well after 20 days under osteogenic conditions.

[8] = test system: bone tissue of mice; assay: Osteoblast proliferation and apoptosis in vivo (BrdU, TUNEL); parameters: species or system mouse; conditions: prednisolone for one day
Procedure: FIG. 10. Proliferation and apoptosis in bones of prednisolone treated GR^Runx2Cre animals. (A, B). GR^flox and GR^Runx2Cre mice were treated with prednisolone for one day pulsed with BrdU for 4 hours and histological sections of long bones stained with anti-BrdU antibody (A) and with a TUNEL kit (B). BM: bone marrow; Scale bar: 20 μm.
Mice were treated with prednisolone (12.5 mg/kg/d) for one day and they got pulsed with 10 μg/g body weight BrdU 4 hours before dissection. Decalcified deparaffined femur sections were stained with the In situ Cell Death Detection Kit (Roche) for apoptosis and rat anti-BrdU (Abcam) following Peroxidase coupled anti-rat IgG for proliferation.

[9] = test system: Female 9 week old FVB/N mice; assay: LIF administration to prednisolone treated mice, MicroCT analysis; type: in vivo, mouse
Procedure: FIG. 23. LIF treatment elevates bone density of prednisolone treated mice. Female 9 week old FVB/N mice were treated with control pellets (sham), prednisolone (Pred) releasing pellets (12 mg/kg/day releasing rate) and were treated one day later with PBS and LIF i.p. injections twice a day (0.2 mg/kg/day) until 15 days. Mice were sacrificed on day 16. MicroCT Analysis was performed and representative longitudinal sections shown in (A), Bone Volume/Tissue volume determined (B) and trabecular thickness and trabecular numbers calculated (C, D). n=6, * p<0.05, ** p<0.01, *** p<0.001
After 15 days the bone mineral density was determined by micro computertomography (FIG. 23).
Female 9 week old FVB/N mice were treated with control pellets (sham), prednisolone (Pred) releasing pellets (12 mg/kg/day releasing rate) and were treated one day later with PBS and LIF i.p. injections twice a day (0.2 mg/kg/day) until 15 days. Mice were sacrificed on day 16.

[10] = test system: 10-week-old female mice
Procedure: Vertebral bodies of 10-week-old female GR^Runx2cre and GR^flox mice treated with placebo (Plac) or prednisolone (Pred; 12.5 mg/kg/day) for two weeks were analyzed by (A) von Kossa staining of undecalcified sections and (B) histomorphometry of BV/TV and TbTh. (C) DPD/Cr levels in urine of mice after prednisolone treatment at indicated times. (D) Histomorphometry of osteoblast number/bone perimeter (NOb/BPm), osteocyte number/bone area (NOy/BAR) and osteoclast number/bone perimeter (NOc/BPm). (E) Fluorescent micrographs of dual calcein labeling and (F) its quantitative analysis of bone formation rate/bone surface (BFR/BS). (G) Number of CFU-OBs within the bone marrow/leg (femur and tibia) and (H) qRT-PCR-determined Col1a1 mRNA expression in long bones of mice treated with placebo or prednisolone for three days. (I) Fluorescent micrographs of dual calcein labeling and (J) its quantitative analysis of BFR/BS in tibiae of GR^LysMcre and corresponding GR^flox control mice.
(A) Fluorescent micrographs of dual calcein labeling and (B) its quantitative analysis of BFR/BS in vertebrae of GR^dim and wild type (wt) mice treated as described in FIG. 2. (C) Vertebral bodies were analyzed by von Kossa staining of undecalcified sections. (D) Histomorphometry of BV/TV, TbTh, (E) NOb/BPm, NOy/BAR and NOc/BPm. (F) Number of CFU-OBs within the bone marrow/leg and (G) qRT-PCR-determined Col1a1 mRNA expression in long bones of mice treated with placebo or prednisolone for three days. (H) DPD/Cr levels in urine of mice after prednisolone treatment at indicated times.
All animal experiments were performed in accordance with accepted standards of animal welfare and with permission of the responsible authorities of Baden-Württemberg and Thüringen. […] To induce osteoporosis, prednisolone (or a placebo control) was applied for 14 days by subcutaneous implantation of slow-release pellets resulting in a calculated dose of 12.5 mg/kg/d (15 mg; 60-day release; Innovative Research of America, Inc.) in 10-week-old female mice.
Parameters of static and dynamic histomorphometry were quantified on toluidine blue-stained undecalcified proximal tibia and lumbar vertebral sections as described previously (Amling et al., 1999) using the Osteo-histomorphometry system (Osteometrics, Atlanta, Ga., USA) (Parfitt et al., 1987). Osteocytes were assessed at the cortical bone by OsteoMeasure™ software. To assess dynamic histomorphometric indices, mice were given two injections of calcein, nine and two days before dissection. Fluorochrome measurements for the determination of the bone formation rate were performed on two nonconsecutive 12-μm-thick sections for each animal. Statistical differences between the groups (n=5-6) were assessed by the Student's t-test.

[11] = test system: primary wild type osteoblasts; assay: Soluble factors added to osteoblasts during osteogenic induction in presence or absence of Dex; type: cell-based, mouse; conditions: day 10, with Dex
Procedure: FIG. 7. Differential gene regulation in GR^dim osteoblasts and bone organs by GCs and involvement of AP-1 in suppression of IL-11 in osteoblast differentiation. (A-E) Primary osteoblasts were grown until confluence and treated as described in FIG. 4A. qRT-PCR-determined mRNA expression levels of GILZ, Per-1, KLF15, Lif (LIF) and II11 (IL-11) after six hours. (F-H) qRT-PCR-determined mRNA expression level of IL-11 in organ cultures of GR mutant fetal hind legs (F), in dN^Runx2Cre osteoblasts (G) and c-jun^null MEFs (H) after six hours treatment. (I) Chromatin immunoprecipitation of MEFs after six hours. […] IgG precipitation served as negative control and amplification of the input as positive control. […] At day 10, ALP activity was determined and at day 20, Alizarin Red staining was performed. (K) Quantification of ALP-positive cells treated as in (J) after 10 days. (L) qRT-PCR-determined Runx2 mRNA expression level in cells treated as in (J) after 10 days.
FIG. 13. Effects of GR regulated soluble factors on osteoblast cell numbers. […] At day 10 cell counts were determined by automatic microscopy. Data are represented as mean+/−SEM. *<0.05.
FIG. 14. Effects of GR regulated soluble factors on osteoblast cell differentiation. Primary wild type osteoblasts were differentiated with or without Dex. At day 10 the specific ALP activity was determined and is depicted as ALP positive cells in percent in the absence or presence of NGF (A), IL-6 (B), EGF (C) and LIF (D). Data are represented as mean+/−SEM. * p<0.05; ** p<0.01.
Primary osteoblasts were isolated from either embryonic (E18.5) or neonatal calvaria by sequential digestions and cultivated as previously described (David et al., 2005). c-Jun-deficient cells were obtained from previously described mice (Schreiber et al., 1999). […] Differentiation of osteoblasts was determined by staining for ALP activity (ALP kit, Sigma or ELF® Phosphatase Detection Kit, ATCC) or by Alizarin Red staining (Sigma) at indicated time points. Apoptosis was detected by In situ Cell Death Detection Kit (Roche), and proliferation with fluorescent immunohistochemistry using mouse anti-Ki-67 (BD Pharmingen™) and Alexa Fluor® 594-labeled donkey anti-mouse IgG (Molecular Probes™). Quantification of the stainings and cell numbers according to DAPI labeling was performed by automated microscopy using Cellomics ArrayScan and software HCS Scan® (Thermo-Fischer). The factors EGF (Calbiochem), NGF2 (Sigma), IL-6 (ImmunoTools), IL-11 (Antigenix America, Inc.) and LIF (Chemicon) were added to the culture after differentiation at concentrations of 0.8, 4 and 20 ng/ml. qRT-PCR was performed as previously described (Tuckermann et al., 2007). Primer information can be provided upon request.

[12] = test system: human cells; conditions: cited from earlier work
[13] = wild type (GR^flox) mice, prednisolone for two weeks

CNCC(Cl)c1ccc(OC(C)=O)cc1.Cl (stereo not drawn) [Compound A]
proinflammatory gene expression [1]: inhibits proinflammatory gene expression | IL-11 signaling [2]: not IL-11 signaling | osteoblast markers in vivo [3]: does not affect | osteoblast differentiation and osteoblast markers in vitro [4]: does not affect | result in the method for identifying agents [5]: tested as a hit | AP-1 dependent gene MMP-13 [6]: repressed

C[C@]12C=CC(=O)C=C1CC[C@@H]1[C@@H]2[C@@H](O)C[C@@]2(C)[C@H]1CC[C@]2(O)C(=O)CO [prednisolone]
Col1a1 expression in long bones ([7]; GR^Runx2Cre mice): remained unchanged | osteoblastogenesis, colony forming units of osteoblasts (CFU-OBs) ([7]; GR^Runx2Cre mice): not in GR^Runx2Cre mice | Col1a1 expression ([7]; GR^dim and wild type mice): similarly reduced in both genotypes | Osteoblastogenesis in vitro (CFU-OBs) ([7]; GR^dim and wild type mice): as efficiently suppressed in GR^dim as in wild type mice | Col1a1 expression in long bones ([7]; GR^flox mice): strongly reduced | osteoblastogenesis, colony forming units of osteoblasts (CFU-OBs) ([7]; GR^flox mice): strongly impaired | TUNEL and BrdU pulse labeling within bone tissue [8]: did not alter | trabecular thickness ([9]; prednisolone pellets 12 mg/kg/day, also in LIF treated animals): reduction of trabecular thickness | bone formation rate ([10]; GR^LysMCre and wild type mice, prednisolone for two weeks): similarly reduced | numbers of osteocytes, osteoblasts and osteoblast surface ([10]; GR^Runx2Cre mice): unaltered | bone mineral density and trabecular thickness ([10]; GR^Runx2Cre mice, prednisolone for two weeks): not affected | bone formation, dynamic histomorphometry following dual calcein labeling ([10]; GR^Runx2cre mice): fully protected | bone formation ([10]; GR^dim and wild type mice): similarly repressed | bone mass and trabecular thickness of the vertebrae ([10]; GR^dim and wild type mice): reduced to a comparable degree | osteoblast and osteocyte numbers ([10]; GR^dim and wild type mice): strong reduction | osteoclast numbers ([10]; GR^dim and wild type mice): not changed | resorption (DPD/Cr) ([10]; GR^dim and wild type mice): slightly decreased | osteoclast numbers ([10]; GR^flox and GR^Runx2Cre mice): not affected | Resorption, deoxypyridinoline (DPD/Cr) levels ([10]; GR^flox and GR^Runx2Cre mice, urine): slightly decreased | numbers of osteocytes, osteoblasts and osteoblast surface ([10]; GR^flox mice): decreased | unspecific toxic effects of the prednisolone dose ([10]; mouse, in vivo): no unspecific toxic effects | reduction of osteocytes ([10]; prednisolone treated mice): 20-35% | bone formation, dynamic histomorphometry following dual calcein labeling ([10]; vertebrae of wild type mice): almost complete inhibition | bone mineral density in vertebral bones [10, 13]: reduced | trabecular thickness [10, 13]: decreased

IL-6: Interleukin 6 added to osteoblast cultures
rescue of Dex-reduced osteoblast cell numbers [11]: neither rescued the reduced cell numbers

LIF: Leukaemia inhibitory factor, secreted polyfunctional cytokine; recombinant protein
rescue of Dex-impaired osteoblast differentiation (ALP positive cells) [11]: potently antagonized; also recorded: ameliorated the inhibition of osteoblast differentiation | rescue of Dex-reduced osteoblast cell numbers [11]: not rescuing | trabecular number ([9]; LIF i.p. 0.2 mg/kg/day, 15 days): strong increase | bone mass (bone volume/tissue volume) ([9]; sham treated and prednisolone treated animals, LIF i.p. 0.2 mg/kg/day, 15 days): increases bone mass

epidermal growth factor: epidermal growth factor, evokes HB-EGF signaling in osteoblasts (NSDSECPLSHDGYCLHDGVCMYIEALDKYACNCVVGYIGERCQYRDLKWWELR; not fully specified; Epidermal growth factor; UniProt P01133 971-1023, looked up)
rescue of Dex-impaired osteoblast differentiation (ALP positive cells) [11]: did not prevent the inhibition of differentiation | rescue of Dex-reduced osteoblast cell numbers [11]: counteracted the reduction in cell number

human LIF: human mature LIF polypeptide of 180 amino acid residues
activity on human and mouse cells [12]: equally active on both human and mouse cells
